Reference: US20230066011A1, “PYRROLOPYRIMIDINE DERIVATIVE, AND PHARMACEUTICAL COMPOSITION FOR PREVENTING OR TREATING PROTEIN KINASE-RELATED DISEASE COMPRISING SAME AS ACTIVE INGREDIENT” (VORONOI CO., LTD., priority 2019, published 2023)

Assays:
[1] = target: T1, human GST-DYRK1A (Homo sapiens, UniProt Q13627); experiment: GST-DYRK1A enzyme inhibition, ADP-Glo kinase assay; type: biochemical; details: ATP 10 μM, GST-DYRK1A full length, read-out: DYRK1 IC50
T1 construct: purified human GST-DYRK1A (full length, Thermo Scientifics) enzyme; purchased Thermo Scientifics
In short: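 Full-length human GST-DYRK1A (10 ng) with 10 μM ATP and specific substrate in 40 mM Tris-HCl pH 7.4, 20 mM MgCl2, 0.5 mg/mL BSA, 50 μM DTT, 1 h at 25 °C. ADP formation read by ADP-Glo luminescence relative to solvent control; IC50 from three data sets.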

[2] = target: T2, human GST-CLK1 (Homo sapiens, UniProt P49759); experiment: GST-CLK1 enzyme inhibition, ADP-Glo kinase assay; type: biochemical; details: ATP 10 μM, GST-CLK1 129-end
T2 construct: purified human GST-CLK1 (129-end, SignalChem) enzyme; purchased SignalChem
T2 sequence (P49759 129-484 limits assumed): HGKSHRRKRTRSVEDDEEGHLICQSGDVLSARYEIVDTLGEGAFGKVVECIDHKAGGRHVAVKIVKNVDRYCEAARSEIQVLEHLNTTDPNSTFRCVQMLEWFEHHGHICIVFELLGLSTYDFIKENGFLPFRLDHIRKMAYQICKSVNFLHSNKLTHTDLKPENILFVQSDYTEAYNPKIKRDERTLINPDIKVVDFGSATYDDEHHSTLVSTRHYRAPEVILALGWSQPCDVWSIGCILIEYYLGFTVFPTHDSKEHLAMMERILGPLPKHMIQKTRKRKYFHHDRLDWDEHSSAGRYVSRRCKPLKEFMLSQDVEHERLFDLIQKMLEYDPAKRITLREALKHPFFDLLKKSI
In short: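 Human GST-CLK1 (129-end, 3 ng) reacted with substrate and 10 μM ATP for 1 h at 25° C in 40 mM Tris-HCl pH 7.4, 20 mM MgCl2, 0.5 mg/mL BSA, 50 μM DTT. ADP-Glo luminescence was normalised to solvent control; IC50 (nM) from 3 data sets.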

[3] = tested on: MDA-MB-231 cell line; experiment: Inhibition of proliferation of MDA-MB-231 cancer cells (Cell Titer-Glo); type: cell-based; details: Homo sapiens, 72 hours
Description: (§1) To evaluate an inhibitory effect on the proliferation of cancer cells, each of an MDA-MB-231 cell line (Korean Cell Line Bank #30026) and an MDA-MB-468 cell line as triple-negative breast cancer cell lines, and SHP-77 (ATCC #CRL-2195) as a small-cell lung cancer cell line was cultured in DMEM (HyClone #SH30243) or an RPMI medium (HyClone #SH3027.01) to analyze a cell growth rate. More specifically, a cell line was plated on a 96-well flat bottom plate (Corning #3903) at a density of 2,000 cells/100 μL per well, and then treated with 11 concentrations of the Example compound, a solution of which was diluted 3-fold so that a final concentration of the compound was 10.000000, 3.333333, 1.111111, 0.370370, 0.123457, 0.041152, 0.013717, 0.004572, 0.001524, 0.000508, and 0.000169 μM. After 72 hours, each of the culture media was treated with 100 μL of Cell Titer-Glo (Promega G7573), and then cultured at room temperature for 10 minutes. Then, a degree of luminescence was measured using a microplate reader. A GI50 value was calculated from the measured degree of luminescence using Prism (Version 8.2 GraphPad) software.

[4] = tested on: SHP-77; experiment: Inhibition of proliferation of SHP-77 cancer cells (Cell Titer-Glo); type: cell-based; details: Homo sapiens, SHP77, 72 hours
Description: as §1

[5] = tested on: MDA-MB-468 cell line; experiment: Inhibition of proliferation of MDA-MB-468 cancer cells (Cell Titer-Glo); type: cell-based; details: Homo sapiens, MDA-MB-468, 72 hours
Description: as §1

[6] = target: LRRK2 (Homo sapiens, UniProt Q5S007); experiment: LRRK2 enzyme inhibition, ADP-Glo kinase assay; type: biochemical; design: purchased Invitrogen PR8604B; details: ATP 10 μM
LRRK2, sequence (Q5S007 970-2527 limits assumed): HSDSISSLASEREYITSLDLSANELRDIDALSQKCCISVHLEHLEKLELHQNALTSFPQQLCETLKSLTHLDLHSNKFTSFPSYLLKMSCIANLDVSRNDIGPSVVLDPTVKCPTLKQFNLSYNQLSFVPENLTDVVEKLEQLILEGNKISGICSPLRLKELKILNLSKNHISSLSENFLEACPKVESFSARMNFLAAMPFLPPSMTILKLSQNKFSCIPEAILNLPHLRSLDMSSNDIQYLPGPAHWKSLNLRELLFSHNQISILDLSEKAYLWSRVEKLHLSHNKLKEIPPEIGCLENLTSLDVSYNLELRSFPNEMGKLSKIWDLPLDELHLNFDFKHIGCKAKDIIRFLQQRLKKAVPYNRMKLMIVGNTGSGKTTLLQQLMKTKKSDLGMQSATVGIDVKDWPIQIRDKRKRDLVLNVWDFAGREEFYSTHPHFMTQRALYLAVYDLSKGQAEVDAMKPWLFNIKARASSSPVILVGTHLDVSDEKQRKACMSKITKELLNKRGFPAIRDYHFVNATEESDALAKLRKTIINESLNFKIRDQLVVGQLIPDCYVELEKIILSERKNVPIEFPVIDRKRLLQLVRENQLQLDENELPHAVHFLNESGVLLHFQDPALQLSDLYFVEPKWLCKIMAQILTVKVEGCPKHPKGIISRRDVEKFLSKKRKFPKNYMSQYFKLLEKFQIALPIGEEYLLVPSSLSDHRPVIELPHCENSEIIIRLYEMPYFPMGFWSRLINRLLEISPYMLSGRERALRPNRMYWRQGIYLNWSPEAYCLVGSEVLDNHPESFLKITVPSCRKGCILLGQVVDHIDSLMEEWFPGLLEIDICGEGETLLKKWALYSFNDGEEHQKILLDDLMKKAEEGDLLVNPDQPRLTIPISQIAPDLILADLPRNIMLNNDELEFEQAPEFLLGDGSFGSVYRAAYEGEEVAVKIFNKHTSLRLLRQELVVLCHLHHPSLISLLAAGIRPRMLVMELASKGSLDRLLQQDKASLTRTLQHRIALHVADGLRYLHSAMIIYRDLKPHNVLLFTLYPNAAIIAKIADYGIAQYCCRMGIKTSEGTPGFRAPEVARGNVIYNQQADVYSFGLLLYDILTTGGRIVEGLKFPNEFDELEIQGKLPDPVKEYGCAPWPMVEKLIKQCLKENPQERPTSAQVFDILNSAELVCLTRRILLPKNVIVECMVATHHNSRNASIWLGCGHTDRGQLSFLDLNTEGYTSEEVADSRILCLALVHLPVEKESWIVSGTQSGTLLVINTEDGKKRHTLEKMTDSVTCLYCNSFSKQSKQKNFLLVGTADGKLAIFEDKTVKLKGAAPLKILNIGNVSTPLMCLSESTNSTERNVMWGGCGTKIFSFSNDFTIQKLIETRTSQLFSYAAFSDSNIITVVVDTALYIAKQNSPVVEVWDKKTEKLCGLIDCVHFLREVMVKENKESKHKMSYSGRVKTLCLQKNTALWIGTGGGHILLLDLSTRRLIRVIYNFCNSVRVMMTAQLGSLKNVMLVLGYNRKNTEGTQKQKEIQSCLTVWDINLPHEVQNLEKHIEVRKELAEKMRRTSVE
In short: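 Purified human LRRK2 (25 ng) with 10 μM ATP and 0.2 μg substrate in 40 mM Tris-HCl pH 7.4, 20 mM MgCl2, 0.5 mg/mL BSA, 50 μM DTT, 2 h at 25° C. ADP-Glo luminescence; 12-point compound series from 50 μM final; IC50 relative to solvent control.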

[7] = target: LRRK2 (G2019S) (Homo sapiens, UniProt Q5S007, G2019S); experiment: LRRK2 G2019S enzyme inhibition, ADP-Glo kinase assay; type: biochemical; design: purchased SignalChem L10-12GG; details: ATP 25 μM
LRRK2 (G2019S), sequence (Q5S007 970-2527 G2019S limits assumed): as the sequence (Q5S007 970-2527 limits assumed) above, with G1050S counted along it
In short: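 Purified human LRRK2 G2019S (16 ng) with 25 μM ATP and 0.2 μg substrate, 2 h at 25° C. in Tris-HCl pH 7.4, MgCl2, BSA, DTT buffer; compounds at 12 final concentrations, 50 μM down to 0.000001024 μM. ADP-Glo luminescence versus solvent control gave IC50.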

SMILES	IC50 [1] [nM]	IC50 [2] [nM]	GI50 [3] [nM]	GI50 [4] [nM]	GI50 [5] [nM]	IC50 [6] [nM]	IC50 [7] [nM]
COc1cc(S(=O)(=O)N2CCOCC2)ccc1Nc1nc(NCC2CCC2)c2c(C#N)c[nH]c2n1 [Example 79, 4-((cyclobutylmethyl)amino)-2-((2-methoxy-4-(morpholinosulfonyl)phenyl)amino)-7H-pyrrolo[2,3-d]pyrimidine-5-carbonitrile]	301 to 1000	301 to 1000	51 to 100	< 50	–	–	–
COCCNc1nc(Nc2ccc(S(=O)(=O)N3CCC(N4CCOCC4)CC3)cc2OC)nc2[nH]cc(C#N)c12 [Example 87, 2-((2-methoxy-4-((4-morpholinopiperidin-1-yl)sulfonyl)phenyl)amino)-4-((2-methoxyethyl)amino)-7H-pyrrolo[2,3-d]pyrimidine-5-carbonitrile]	101 to 300	< 100	101 to 300	–	< 50	< 100	< 100
CC[C@H](C)Nc1nc(Nc2ccc(S(=O)(=O)N3CCC(N4CCOCC4)CC3)cc2OC)nc2[nH]cc(C(F)(F)F)c12 [Example 211, (S)-N^4-(sec-butyl)-N^2-(2-methoxy-4-((4-morpholinopiperidin-1-yl)sulfonyl)phenyl)-5-(trifluoromethyl)-7H-pyrrolo[2,3-d]pyrimidine-2,4-diamine]	301 to 1000	301 to 1000	301 to 1000	–	301 to 1000	< 100	101 to 300
C=CCNc1nc(Nc2ccc(S(=O)(=O)N3CCOCC3)cc2OC)nc2[nH]cc(C#N)c12 [Example 362, 4-(allylamino)-2-((2-methoxy-4-(morpholino-sulfonyl)phenyl)amino)-7H-pyrrolo[2,3-d] pyrimidine-5-carbonitrile]	301 to 1000	301 to 1000	< 50	–	< 50	< 100	< 100
COc1cc(S(=O)(=O)N2CCC(N3CCOCC3)CC2)ccc1Nc1nc(NC2CC2)c2c(C#N)c[nH]c2n1 [Example 88, 4-(cyclopropylamino)-2-((2-methoxy-4-((4-morpholinopiperidin-1-yl)sulfonyl)phenyl)amino)-7H-pyrrolo[2,3-d]pyrimidine-5-carbonitrile]	101 to 300	101 to 300	101 to 300	–	51 to 100	< 100	< 100
COc1cc(S(=O)(=O)N2CCOCC2)ccc1Nc1nc(NC2CC2)c2c(C(F)(F)F)c[nH]c2n1 [Example 374, N^4-cyclopropyl-N^2-(2-methoxy-4-(morpholino-sulfonyl)phenyl)-5-(trifluoromethyl)-7H-pyrrolo[2,3-d]pyrimidine-2,4-diamine]	301 to 1000	301 to 1000	301 to 1000	–	301 to 1000	< 100	< 100
COc1cc(S(=O)(=O)N2CCOCC2)ccc1Nc1nc(NC2CCC2)c2c(C(F)(F)F)c[nH]c2n1 [Example 377, N^4-cyclobuty-N2-(2-methoxy-4-(morpholino-sulfonyl)phenyl)-5-(trifluoromethyl)-7H-pyrrolo[2,3-d]pyrimidine-2,4-diamine]	301 to 1000	< 100	301 to 1000	–	301 to 1000	101 to 300	101 to 300
CCNc1nc(Nc2ccc(S(=O)(=O)N3CCOCC3)c3c2OCCO3)nc2[nH]cc(C(F)(F)F)c12 [Example 432, N^4-ethyl-N^2-(8-(morpholino-sulfonyl)-2,3-dihydro-benzo[b][1,4]dioxin-5-yl)-5-(trifluoromethyl)-7H-pyrrolo[2,3-d]pyrimidine-2,4-diamine]	301 to 1000	301 to 1000	301 to 1000	–	301 to 1000	< 100	101 to 300
